Earlier results as cited in patent publication US12350296B2, “Liquid propolis extract, its formulation and use thereof” (Apiotix Technologies D.O.O., priority 2019, dated 2025).
Like-named read-outs stand apart in the source and are kept apart here.

System: subclinical mastitis
Details: for healing (cure) of cases: subclinical mastitis caused by S. uberis

SMILES	bacteriological cure (daily i.mam. application during 8 days) [%]	bacteriological cure (i.mam. application, after 5 days) [%]	healing (cure) of cases (therapy for 5 days) [%]	healing (cure) of cases (therapy for 8 days) [%]	healing (cure) of cases (two-day therapy) [%]
CO/N=C(\C(=O)N[C@@H]1C(=O)N2C(C(=O)O)=C(CSC(=O)c3ccco3)CS[C@H]12)c1csc(N)n1 [ceftiofur]	66	54			
CC[C@@H]1CCN[C@H](C(=O)N[C@@H]([C@H]2O[C@H](SC)[C@H](O)[C@@H](O)[C@H]2O)[C@H](C)Cl)C1 [pirlimycin]			68.8	80	58.1
